Measured values as given in paper PMC7876453, “Targeting Indoleamine 2,3-Dioxygenase in Cancer Models Using the Novel Small Molecule Inhibitor NTRC 3883-0” (Frontiers in Immunology, 2021).
pIC50: −log10 of the molar value. Read-outs that look alike come from different tables or passages of the source. Values belong to the compound of their own block, whether it stands above or below them.

Legend:
[1] = target: T1, A375 + IFNγ (hIDO1) (Homo sapiens, UniProt P14902); experiment: cell-based assay, Trp-catabolizing activity in IFNγ-stimulated A375 cells; settings: IFNγ-stimulated A375 human melanoma cells
T1 construct: host or cells: A375 cells stimulated with IFNγ

[2] = target: T2, human IDO1 (Homo sapiens, UniProt P14902); experiment: human IDO1 biochemical assay (NFK GreenScreen)
T2 construct: Full-length recombinant human and mouse IDO1 were expressed in Escherichia coli with a hexahistidine tag at the N-terminus; hexahistidine (N); made in house; host or cells: Escherichia coli

[3] = test system: CT26 cells implanted subcutaneously into female BALB/c mice; experiment: CT26 mouse model, first study (ProQinase); type: in vivo; settings: 50 mg/kg NTRC 3748-0 b.i.d., 100 mg/kg epacadostat q.d.; for Kyn levels in the tumor: LC-MS/MS, 2 h post last dose; for tumor growth: p.o. from day 8
Experimental: For the first CT26 mouse model study, performed at ProQinase, 5 × 10^5 CT26 cells were implanted subcutaneously into female BALB/c mice on day 0. […] Tumor growth was monitored using caliper measurement 2 times weekly. The study was terminated at day 22 based on the tumor burden. Tumors and plasma were sampled 2 h post last dose.
(§1) Tissues were homogenized in PBS at a ratio of 1 mg per 10 μl using micro pellet pestles mounted on a Micro-Tube Homogenizer System (Thomas Scientific). After centrifugation, proteins were removed from the homogenized tissue supernatants and plasma samples by precipitation with methanol. The concentrations of inhibitor, Trp and Kyn were determined by LC-MS/MS.

[4] = target: T3, human TDO (Homo sapiens, UniProt P48775); experiment: human TDO biochemical assay (NFK GreenScreen)
T3 construct: hexahistidine (C); made in house; host or cells: Escherichia coli
Experimental: (§2) Full-length recombinant human and mouse IDO1 were expressed in Escherichia coli with a hexahistidine tag at the N-terminus, and purified by affinity chromatography to > 95% purity, as described ([8]). Human and mouse TDO containing a C-terminal hexahistidine tag were analogously expressed and purified to > 95% purity ([8]). The inhibitory activity of compounds was determined with the NFK GreenScreen assay technology under the conditions as described ([8]), except for the reaction buffer for IDO1, which was replaced by 50 mM NaH2PO4, pH 7.0, supplemented with 0.01% Tween-20 and 1% glycerol. Inhibition of the CYP3A4 and CYP2D6 enzymes was determined with the P450-Glo™ Screening System with Luciferin-IPA (Promega, #V9920 and V9890). For determination of IC50 values, the effect of inhibitors was determined in 10-point duplicate dose-response curves. Graphs were fitted to a four-parameter logistics equation in XLfit (ID Business Solutions, Ltd., Guildford, UK) from which IC50 values were calculated.

[5] = test system: IDO1; parameters: method as in doi:10.1200/JCO.2019.37.7_suppl.358; settings: once-daily oral dosing; cited from earlier work
[6] = target: GL-261-mTDO (Mus musculus, UniProt P48776); experiment: cell-based assay, Trp-catabolizing activity in GL-261-mTDO cells; settings: read-out: inhibition GL-261-mTDO
[7] = target: HEK-hTDO (Homo sapiens, UniProt P48775); experiment: cell-based assay, Trp-catabolizing activity in HEK-hTDO cells
[8] = test system: IDO1; settings: cited from earlier work
[9] = test system: IDO1; settings: cited from earlier work; remark: listed apart in the source
[10] = test system: CD8-positive T cells co-cultured with HEK-hIDO1 cells; experiment: co-culture assay of HEK-hIDO1 cells with PBMCs, CFSE proliferation; type: cell-based, human; settings: 7.5 µM Trp; 10 µM NTRC 3883-0, 1 µM epacadostat; 5 days
[11] = test system: CT26 cells implanted subcutaneously into female BALB/c mice; experiment: CT26 mouse model, second study (Charles River); type: in vivo
Experimental: For the second study, performed at Charles River Laboratories, 3 × 10^5 CT26 cells were implanted subcutaneously into female BALB/c mice on day 0. […] Tumor growth was monitored using caliper measurement 3 times weekly. A tumor volume of 2000 mm^3 was used as the endpoint of the experiment for the individual animals. Tumors were sampled 2 h post last dose.
as §1

[12] = test system: melanoma patients; settings: combination with pembrolizumab; cited from earlier work
[13] = test system: cell lines used in this study; experiment: cell viability assays (ATPlite 1Step); settings: in parallel with the cell-based assays
[14] = target: T4, mTDO (Mus musculus, UniProt P48776); experiment: mouse TDO biochemical assay (NFK GreenScreen)
T4 construct: hexahistidine (C); made in house; host or cells: Escherichia coli
Experimental: as §2

[15] = test system: IFNγ-stimulated adherent cell samples isolated from ascites of ovarian cancer patients; experiment: Trp-catabolizing activity in IFNγ-stimulated ascites cell samples; type: cell-based; settings: Homo sapiens
Experimental: (§3) Ascites was collected from patients with a primary diagnosis of advanced epithelial ovarian cancer during paracentesis for diagnostics or symptom relieve, or during primary debulking surgery. Ascites was filtered and cells were collected by centrifugation as described ([23]). To enrich for tumor cells, ascites cell samples were allowed to adhere overnight to tissue culture plastic. The cell samples were then cultured for 2–3 weeks in advanced RPMI medium (ThermoFisher), supplemented with 10% FBS, 1% glutamax and 1% P/S, with 2 or 3 times passaging of the cells. qPCR analyses of the MUC16, HE4, IDO1, and TDO2 genes were performed for all samples as described above. Five samples which could be cultured over multiple passages were analyzed for cell surface expression of mucin-16 and EpCAM by flow cytometry using FITC-conjugated anti-mucin-16 (AssayPro, #32189-05141) and APC-conjugated anti-EpCAM (Miltenyi, #130-111-117, RRID: AB_2657496) to assure that the cell cultures consisted of malignant cells. IDO1 mRNA and protein levels in these samples were analyzed as described above after incubation with or without 200 ng/ml IFNγ for 24 h. The collection of ascites and the research described was conducted with approval of the medical ethical committee of the Radboud university medical center and informed written consent from each subject.

[16] = test system: unstimulated adherent cell samples isolated from ascites of ovarian cancer patients; experiment: Trp-catabolizing activity in unstimulated ascites cell samples; type: cell-based, human; settings: for pIC50: Homo sapiens
Experimental: as §3

[17] = target: T5, SW48 (hTDO) (Homo sapiens, UniProt P48775); experiment: cell-based assay, Trp-catabolizing activity in SW48 cells; settings: Trp-catabolizing activity
T5 construct: host or cells: SW48 cells

[18] = test system: B16F10-mIDO1 subline j19 in female B6D2F1 mice; experiment: B16F10-mIDO1 syngeneic mouse model, intervention study; type: in vivo; settings: 100 mg/kg p.o. b.i.d. from day 3
Excerpt: For development of the mIDO1-overexpressing B16F10 mouse model, performed at Charles River Laboratories, female B6D2F1 mice were implanted subcutaneously with 1 × 10^6 parental B16F10 cells or B16F10-mIDO1 cells (subline i6 or j19) on day 0 with n = 10 mice per group. A tumor volume of 2000 mm^3 was used as the endpoint of the experiment for the individual animals. To determine the optimal inoculation cell concentration, mice were implanted with 3 × 10^5, 1 × 10^5 or 3 × 10^4 parental or mIDO1-overexpressing B16F10 cells (subline j19) with n = 5 mice per group. The same endpoint of the experiment was used as described above. […] For the intervention study, 3 x 10^5 cells of the B16F10-mIDO1 subline j19 were implanted on day 0, and treatment was started on day 3 with vehicle (DMSO, Kolliphor, 5% mannitol; […]. Four animals were excluded from analysis due to non-treatment-related deaths. Tumors and plasma were sampled 2 h post last dose.
[…]. After centrifugation, proteins were removed from the homogenized tissue supernatants and plasma samples by precipitation with methanol. The concentrations of inhibitor, Trp and Kyn were determined by LC-MS/MS.

T2 sequence (P14902 whole entry): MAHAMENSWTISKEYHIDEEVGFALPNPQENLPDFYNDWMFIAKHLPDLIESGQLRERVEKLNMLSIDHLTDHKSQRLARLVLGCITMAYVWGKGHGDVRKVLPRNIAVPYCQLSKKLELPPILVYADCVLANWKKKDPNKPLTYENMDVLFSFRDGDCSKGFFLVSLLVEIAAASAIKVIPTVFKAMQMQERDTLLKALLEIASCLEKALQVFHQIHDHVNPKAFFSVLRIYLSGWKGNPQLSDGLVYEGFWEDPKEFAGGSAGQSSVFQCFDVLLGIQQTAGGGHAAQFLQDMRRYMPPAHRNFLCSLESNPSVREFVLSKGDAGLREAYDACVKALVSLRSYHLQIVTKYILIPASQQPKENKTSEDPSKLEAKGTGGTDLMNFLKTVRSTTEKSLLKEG
T1 sequence (P14902 whole entry): as above
Chain of HEK-hTDO (P48775 whole entry): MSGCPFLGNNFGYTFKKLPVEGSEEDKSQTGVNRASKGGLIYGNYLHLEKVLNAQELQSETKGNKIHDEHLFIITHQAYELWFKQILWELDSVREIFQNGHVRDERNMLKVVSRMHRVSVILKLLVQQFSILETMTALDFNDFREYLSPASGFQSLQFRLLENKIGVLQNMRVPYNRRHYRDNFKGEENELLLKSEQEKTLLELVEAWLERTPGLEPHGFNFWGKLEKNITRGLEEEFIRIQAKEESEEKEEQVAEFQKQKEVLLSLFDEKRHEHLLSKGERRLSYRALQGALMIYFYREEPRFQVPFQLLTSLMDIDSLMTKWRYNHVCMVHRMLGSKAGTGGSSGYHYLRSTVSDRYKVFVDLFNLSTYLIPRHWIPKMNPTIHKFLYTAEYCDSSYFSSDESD
T3 sequence (P48775 whole entry): as above
T5 sequence (P48775 whole entry): as above
Chain of GL-261-mTDO (P48776 whole entry): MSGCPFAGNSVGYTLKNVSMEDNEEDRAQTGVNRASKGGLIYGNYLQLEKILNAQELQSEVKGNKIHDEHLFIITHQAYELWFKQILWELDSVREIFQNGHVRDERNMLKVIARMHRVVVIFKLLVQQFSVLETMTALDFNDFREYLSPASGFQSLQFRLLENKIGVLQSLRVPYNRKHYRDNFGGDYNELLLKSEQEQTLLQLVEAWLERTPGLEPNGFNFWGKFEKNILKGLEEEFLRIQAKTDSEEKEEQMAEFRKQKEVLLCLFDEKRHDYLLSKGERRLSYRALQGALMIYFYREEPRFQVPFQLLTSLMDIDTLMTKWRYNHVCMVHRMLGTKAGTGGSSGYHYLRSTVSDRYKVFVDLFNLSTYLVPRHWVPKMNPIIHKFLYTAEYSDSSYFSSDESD
T4 sequence (P48776 whole entry): as above

pIC50 [1]: 5.94
pIC50 ([2]; human IDO1 biochemical assay): 6.32
SMILES: O=C1CN(C(=O)c2ccccc2F)C(c2cccc(Br)c2)N1O (stereo not shown) [Compound 3c]

pIC50 [1]: 6.23
pIC50 ([2]; human IDO1 biochemical assay): 6.70
SMILES: O=C1CN(C(=O)c2c(F)cccc2F)C(c2cccc(Br)c2)N1O (stereo not shown) [Compound 3j]
Kyn levels in the tumor [3]: considerable reduction of Kyn levels
tumor growth [3]: inhibition of tumor growth

activity on human TDO (in words) ([4]; biochemical, highest tested concentration 31.6 µM): inactive
pIC50 [1]: 5.34
pIC50 ([2]; biochemical): 5.92
pIC50 ([2]; human IDO1 biochemical assay): 5.91
SMILES: O=C1CN(C(=O)c2ccccc2)C(c2cccc(Br)c2)N1O (stereo not shown) [Compound 1]

pIC50 [1]: 4.90
pIC50 ([2]; human IDO1 biochemical assay): 5.75
SMILES: O=C1CN(C(=O)c2ccccc2Br)C(c2cccc(Br)c2)N1O (stereo not shown) [Compound 3g]

SMILES: C[C@@H](C(=O)Nc1ccc(Cl)cc1)[C@H]1CC[C@@H](c2ccnc3ccc(F)cc32)CC1 [Linrodostat, linrodostat]
safety and target coverage [5]: safety and good target coverage

pIC50 [1]: 5.28
pIC50 ([2]; human IDO1 biochemical assay): 5.61
SMILES: O=C1CN(C(=O)c2ccccc2)C(c2cccc(C(F)(F)F)c2)N1O (stereo not shown) [Compound 2g]

pIC50 [1]: 5.67
pIC50 ([2]; human IDO1 biochemical assay): 6.24
SMILES: O=C1CN(C(=O)c2ccc(F)cc2F)C(c2cccc(Br)c2)N1O (stereo not shown) [Compound 3i]

pIC50 [1]: 5.34
pIC50 ([2]; human IDO1 biochemical assay): 5.66
SMILES: O=C1CN(C(=O)c2c(F)cccc2F)[C@@H](c2cccc(Br)c2)N1O [Compound 3k]

pIC50 [1]: < 4.50
pIC50 ([2]; human IDO1 biochemical assay): < 4.50
SMILES: O=C1CN(C(=O)c2ccccc2)C(c2ccccc2Br)N1O (stereo not shown) [Compound 2c]

SMILES: NS(=O)(=O)NCCNc1nonc1C(=NO)Nc1ccc(F)c(Br)c1 [epacadostat, reference compound]
inhibition at 31.6 µM [6]: 28%
pIC50 [7]: 4.62
times lower activity on TDO in the HEK-hTDO assay than in the biochemical assay ([7]; cell-based versus biochemical TDO IC50): more than 400 times
pIC50 [4]: 7.27
clinical benefit of the combination over pembrolizumab plus placebo [8]: no clinical benefit
tolerability in human patients [9]: well tolerated
effect on IDO1-mediated inhibition of T cell proliferation (in words) [10]: relieved the inhibitory effect
tumor growth ([11]; 100 mg/kg p.o. b.i.d. from day 8): no inhibition of tumor growth
Kyn levels in the tumor ([11]; LC-MS/MS, 2 h post last dose, 100 mg/kg p.o. b.i.d.): considerable reduction of Kyn levels
objective response [12]: 12 out of 22
Kyn levels in the tumor [3]: considerable reduction of Kyn levels
tumor growth [3]: inhibition of tumor growth
cytotoxicity [13]: not cytotoxic
pIC50 [14]: 6.65
pIC50 ([15]; IFNγ-stimulated samples, read-out: IC50): 8.08
pIC50 ([15]; IFNγ-stimulated, read-out: IC50 ASC 009): 8.43
pIC50 ([15]; IFNγ-stimulated, read-out: IC50 ASC 010): 8.03
pIC50 ([15]; IFNγ-stimulated, read-out: IC50 ASC 013): 8.05
pIC50 ([15]; IFNγ-stimulated, read-out: IC50 ASC 031): 8.14
pIC50 ([15]; IFNγ-stimulated, read-out: IC50 ASC 041): 8.13
inhibition of basal Trp-catabolizing activity (in words) [16]: no or only minimal inhibition
pIC50 ([16]; mean of samples, read-out: IC50 Mean): 5.11
pIC50 ([16]; read-out: IC50 ASC 010): 5.02
pIC50 ([16]; read-out: IC50 ASC 013): 5.00
pIC50 ([16]; read-out: IC50 ASC 031): 5.06
pIC50 ([16]; read-out: IC50 ASC 041): 5.37
pIC50 [17]: 5.19
tumor growth corrected for the variation in time until tumor establishment [18]: delay in tumor growth
tumor growth in comparison to vehicle-treated animals [18]: no effect

pIC50 [1]: 5.55
pIC50 ([2]; human IDO1 biochemical assay): 6.22
SMILES: O=C1CN(C(=O)c2cc(F)ccc2F)C(c2cccc(Br)c2)N1O (stereo not shown) [Compound 3h]
